Reference: the supplement of paper PMC13380429

Experiments:
Conditions in all cases: 72 h
[1] = system: Caco-2; assay: cell viability relative to DMSO; higher = less toxic
[2] = system: Calu-3; assay: as above
[3] = system: HepG2; assay: as above
[4] = system: U2OS; assay: as above
[5] = system: Vero E6; assay: as above
[6] = system: Caco-2; assay: relative viability EC50 (midpoint between 100% and the lowest measured viability); higher = less toxic
[7] = system: Calu-3; assay: as above
[8] = system: HepG2; assay: as above
[9] = system: U2OS; assay: as above
[10] = system: Vero E6; assay: as above
[11] = system: Caco-2; assay: drug sensitivity score (DSS) for viability; higher = more toxic; extreme values may be limits of the assay
[12] = system: Calu-3; assay: as above
[13] = system: HepG2; assay: as above
[14] = system: U2OS; assay: as above
[15] = system: Vero E6; assay: as above

Compound | cell viability ([1]; 1 nM) [%] | cell viability ([1]; 10 nM) [%] | cell viability ([1]; 100 nM) [%] | cell viability ([1]; 1000 nM) [%] | cell viability ([1]; 10000 nM) [%] | cell viability ([2]; 1 nM) [%] | cell viability ([2]; 10 nM) [%] | cell viability ([2]; 100 nM) [%] | cell viability ([2]; 1000 nM) [%] | cell viability ([2]; 10000 nM) [%] | cell viability ([3]; 1 nM) [%] | cell viability ([3]; 10 nM) [%] | cell viability ([3]; 100 nM) [%] | cell viability ([3]; 1000 nM) [%] | cell viability ([3]; 10000 nM) [%] | cell viability ([4]; 1 nM) [%] | cell viability ([4]; 10 nM) [%] | cell viability ([4]; 100 nM) [%] | cell viability ([4]; 1000 nM) [%] | cell viability ([4]; 10000 nM) [%] | cell viability ([5]; 1 nM) [%] | cell viability ([5]; 10 nM) [%] | cell viability ([5]; 100 nM) [%] | cell viability ([5]; 1000 nM) [%] | cell viability ([5]; 10000 nM) [%] | relative viability EC50 [6] [µM] | relative viability EC50 [7] [µM] | relative viability EC50 [8] [µM] | relative viability EC50 [9] [µM] | relative viability EC50 [10] [µM] | drug sensitivity score [11] | drug sensitivity score [12] | drug sensitivity score [13] | drug sensitivity score [14] | drug sensitivity score [15]
C[C@H]1C[C@H]2[C@@H]3CCC4=CC(=O)C=C[C@]4(C)[C@H]3C(=O)C[C@]2(C)[C@@]1(O)C(=O)CO [Betapar (Meprednisone)] | 86.1 | 91.1 | 87.4 | 103 | 94.8 | 92.9 | 93.2 | 91.5 | 91 | 97.8 | 83.6 | 97.3 | 95.5 | 95.9 | 86.5 | 97.6 | 98.3 | 96 | 98.2 | 95.1 | 103 | 102 | 101 | 99.7 | 97.4 | > 10 | > 10 | > 10 | > 10 | > 10 | 0 | 0 | 0 | 0 | 0
COc1cc2nc(N3CCC(N4CCCCC4)CC3)nc(NC3CCCCCC3)c2cc1OC [C-021] | 101 | 101 | 108 | 93.4 | 23.4 | 98.4 | 100 | 94.7 | 90 | 4.2 | 108 | 93.7 | 99.4 | 101 | -0.2 | 99.4 | 98.7 | 99.1 | 94.6 | 16.7 | 96.8 | 102 | 99.1 | 97.5 | 0.8 | 2.47 | 2.31 | 3.24 | 2.65 | 2.98 | 5.3 | 6.9 | 5.5 | 5.4 | 5.9
Cc1cc2c(C(N)=O)cccc2n1-c1nc2c(c(NCc3ccccc3)n1)COCC2 [CB-5083] | 97.8 | 92.8 | 103 | 50.1 | 13.6 | 101 | 94.3 | 104 | 47.1 | 1.7 | 107 | 95 | 104 | 2.8 | -0.2 | 100 | 102 | 98.4 | 87.1 | -0.3 | 98.8 | 103 | 102 | 1.1 | -0.4 | 0.883 | 0.941 | 0.36 | 2.12 | 0.338 | 10.8 | 11.9 | 17.3 | 7.7 | 17.6
N#Cc1cc2nc(O)c(O)nc2cc1[N+](=O)[O-] [CNQX] | 99 | 96.1 | 99.8 | 97.5 | 94.6 | 95.9 | 101 | 106 | 97 | 85.8 | 99.4 | 94.7 | 99.1 | 98.3 | 99.5 | 97.9 | 101 | 97.9 | 104 | 96.8 | 100 | 100 | 104 | 94.8 | 95.2 | > 10 | > 10 | > 10 | > 10 | > 10 | 0 | 0.4 | 0 | 0 | 0
O=C(O)C1=C(CSc2nnnn2CS(=O)(=O)O)CS[C@@H]2[C@H](NC(=O)[C@H](O)c3ccccc3)C(=O)N12 [Cefonicid (sodium)] | 97.8 | 102 | 93.4 | 97.7 | 102 | 95.7 | 97.2 | 97.9 | 96.6 | 95.8 | 103 | 100 | 92.2 | 103 | 97.7 | 95.1 | 99.2 | 94.3 | 101 | 94.4 | 99.9 | 98.9 | 102 | 99.1 | 99.5 | > 10 | > 10 | > 10 | > 10 | > 10 | 0 | 0 | 0 | 0 | 0
CCn1c(=O)[nH]c2cc(Cl)c(Cl)cc21 [DCEBIO] | 98.2 | 97.2 | 99.7 | 93 | 98.7 | 101 | 98.6 | 93.8 | 96.9 | 102 | 101 | 104 | 104 | 86.3 | 107 | 98 | 103 | 98.3 | 98.3 | 97 | 102 | 100 | 96 | 99.9 | 99.2 | > 10 | > 10 | > 10 | > 10 | > 10 | 0 | 0 | 0 | 0 | 0
CC(C)Oc1ccc(-c2cnc3c(-c4ccnc5ccccc45)cnn3c2)cc1 [DMH1] | 108 | 93.7 | 102 | 95.9 | 95.6 | 117 | 102 | 105 | 108 | 96.4 | 104 | 103 | 100 | 96.8 | 90 | 103 | 100 | 98.4 | 94.4 | 89.8 | 95.4 | 104 | 98.2 | 104 | 104 | > 10 | > 10 | > 10 | > 10 | > 10 | 0 | 0 | 0 | 0 | 0
CC(=O)c1ccc(NS(C)(=O)=O)c(Oc2ccc(F)cc2F)c1 [FK-3311] | 99 | 90.1 | 96.9 | 94 | 95.8 | 110 | 93.1 | 103 | 109 | 114 | 98.3 | 107 | 98.6 | 99.5 | 87.3 | 104 | 98.1 | 98.7 | 97.2 | 102 | 98.3 | 101 | 96.2 | 102 | 92.8 | > 10 | > 10 | > 10 | > 10 | > 10 | 0 | 0 | 0.1 | 0 | 0
CCCCC/C=C\C/C=C\CCCCCCCC(=O)NCCCC(=O)O [GABA-linoleamide] | 96.9 | 110 | 96.2 | 87.5 | 126 | 86 | 97.9 | 87 | 111 | 90.6 | 74.4 | 97.2 | 95.6 | 98.2 | 120 | 95.2 | 97.9 | 99.3 | 102 | 95.8 | 106 | 108 | 111 | 99.1 | 114 | > 10 | > 10 | > 10 | > 10 | > 10 | 0 | 0 | 0 | 0 | 0
CC/C(=C(/c1ccc(/C=C/C(=O)O)cc1)c1ccc2[nH]ncc2c1)c1ccc(F)cc1Cl [GDC-0810] | 102 | 94.6 | 95 | 102 | 92.7 | 105 | 110 | 84.4 | 108 | 105 | 87.5 | 109 | 92.2 | 94.1 | 90.6 | 101 | 102 | 98.7 | 104 | 100 | 92.9 | 102 | 96.4 | 100 | 90.6 | > 10 | > 10 | > 10 | > 10 | > 10 | 0 | 0 | 0 | 0 | 0
Cc1cc(C)c(CNC(=O)c2cc(-c3ccc(N4CCN(C)CC4)nc3)cc3c2c(C)cn3C(C)C)c(=O)[nH]1 [GSK503] | 98.8 | 104 | 93.7 | 105 | 102 | 88.3 | 85.3 | 92.9 | 109 | 104 | 92.6 | 112 | 99.7 | 94.4 | 87.2 | 104 | 98.6 | 104 | 101 | 102 | 101 | 104 | 105 | 98.6 | 102 | > 10 | > 10 | > 10 | > 10 | > 10 | 0 | 0 | 0.4 | 0 | 0
CCN(CC)CCNC(=O)c1ccccc1I [I-BZA2] | 89.9 | 86.5 | 98.7 | 100 | 91.4 | 98.8 | 102 | 105 | 105 | 115 | 105 | 94.7 | 102 | 84 | 100 | 99.1 | 101 | 95.8 | 102 | 102 | 99 | 99.3 | 104 | 91.5 | 110 | > 10 | > 10 | > 10 | > 10 | > 10 | 0 | 0 | 0 | 0 | 0
CCN(CC)CCNC(=O)c1ccc(I)cc1 [I-BZA] | 96.9 | 95.9 | 104 | 106 | 104 | 93.3 | 101 | 96.3 | 105 | 114 | 93.9 | 101 | 98.9 | 102 | 93.1 | 99.7 | 94.7 | 98.5 | 95.8 | 101 | 91.3 | 104 | 95 | 101 | 94.8 | > 10 | > 10 | > 10 | > 10 | > 10 | 0 | 0 | 0 | 0 | 0
CCCNC(=O)Nc1ccc(Oc2ncnc3cc(OC)c(OC)cc23)cc1Cl [KRN-633] | 92.8 | 98.5 | 86.6 | 93 | 90.8 | 100 | 101 | 95.4 | 101 | 97.4 | 103 | 90.5 | 100 | 92.1 | 94.5 | 96.8 | 97.7 | 96 | 97 | 93.4 | 101 | 103 | 104 | 105 | 99.2 | > 10 | > 10 | > 10 | > 10 | > 10 | 0 | 0 | 0 | 0 | 0
